According to PubChem BioAssay (NCI):
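Interpolation was linear, between the two tested concentrations surrounding the appropriate level; five concentrations were tested over 48 hours in 96-well plates. GI50: concentration for 50% inhibition of growth. TGI denotes the concentration required for complete inhibition of growth.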 Where a SMILES comes first, the peptide text is derived from it. [ ]: non-standard residue; d: D form. The star is where a group is joined. Decanoyl = CCCCCCCCCC(=O)*; Leu(ol) = CC(C)C[C@H](N)CO; Iva = CC[C@](C)(N)C(=O)O; Aib = CC(C)(N)C(=O)O

Assays:
Test in all cases: NCI anticancer screen, dose series, 48 h
786-0 renal = tested on: 786-0 renal
A498 renal = tested on: A498 renal
A549 NSCLC = tested on: A549 NSCLC
ACHN renal = tested on: ACHN renal
BT-549 breast = tested on: BT-549 breast
CAKI-1 renal = tested on: CAKI-1 renal
CCRF-CEM leukemia = tested on: CCRF-CEM leukemia
COLO 205 colon = tested on: COLO 205 colon
DU-145 prostate = tested on: DU-145 prostate
EKVX NSCLC = tested on: EKVX NSCLC
HCC-2998 colon = tested on: HCC-2998 colon
HCT-116 colon = tested on: HCT-116 colon
HCT-15 colon = tested on: HCT-15 colon
HL-60(TB) leukemia = tested on: HL-60(TB) leukemia
HOP-62 NSCLC = tested on: HOP-62 NSCLC
HOP-92 NSCLC = tested on: HOP-92 NSCLC
HS 578T breast = tested on: HS 578T breast
HT29 colon = tested on: HT29 colon
IGROV1 ovarian = tested on: IGROV1 ovarian
K-562 leukemia = tested on: K-562 leukemia
KM12 colon = tested on: KM12 colon
LOX IMVI melanoma = tested on: LOX IMVI melanoma
M14 melanoma = tested on: M14 melanoma
MALME-3M melanoma = tested on: MALME-3M melanoma
MCF7 breast = tested on: MCF7 breast
MDA-MB-231 breast = tested on: MDA-MB-231 breast
MDA-MB-435 = tested on: MDA-MB-435
MOLT-4 leukemia = tested on: MOLT-4 leukemia
NCI-H226 lung = tested on: NCI-H226 lung
NCI-H460 lung = tested on: NCI-H460 lung
NCI-H522 lung = tested on: NCI-H522 lung
NCI/ADR-RES ovarian = tested on: NCI/ADR-RES ovarian
OVCAR-3 ovarian = tested on: OVCAR-3 ovarian
OVCAR-4 ovarian = tested on: OVCAR-4 ovarian
OVCAR-5 ovarian = tested on: OVCAR-5 ovarian
OVCAR-8 ovarian = tested on: OVCAR-8 ovarian
PC-3 prostate = tested on: PC-3 prostate
RPMI-8226 leukemia = tested on: RPMI-8226 leukemia
RXF 393 renal = tested on: RXF 393 renal
SF-268 CNS = tested on: SF-268 CNS
SF-295 CNS = tested on: SF-295 CNS
SF-539 CNS = tested on: SF-539 CNS
SK-MEL-2 melanoma = tested on: SK-MEL-2 melanoma
SK-MEL-28 melanoma = tested on: SK-MEL-28 melanoma
SK-MEL-5 melanoma = tested on: SK-MEL-5 melanoma
SK-OV-3 ovarian = tested on: SK-OV-3 ovarian
SN12C renal = tested on: SN12C renal
SNB-19 CNS = tested on: SNB-19 CNS
SNB-75 CNS = tested on: SNB-75 CNS
SR leukemia = tested on: SR leukemia
SW-620 colon = tested on: SW-620 colon
T-47D breast = tested on: T-47D breast
TK-10 renal = tested on: TK-10 renal
UACC-257 melanoma = tested on: UACC-257 melanoma
UACC-62 melanoma = tested on: UACC-62 melanoma
UO-31 renal = tested on: UO-31 renal

`CCCCCCCCCC(=O)N[C@@](C)(CC)C(=O)N1CCC[C@H]1C(=O)N[C@@H](CC(C)C)C(=O)N[C@@](C)(CC)C(=O)N[C@@H](CCC(N)=O)C(=O)N[C@H](CCC(N)=O)C(=O)NC(C)(C)C(=O)NC(C)(C)C(=O)N[C@@H](CCC(N)=O)C(=O)N[C@H](CC(C)C)C(=O)N[C@H](CO)CC(C)C` (Decanoyl-[Iva]PL[Iva]Q[dQ][Aib][Aib]Q[dL][Leu(ol)]) gave a GI50 (786-0 renal) of 2.48 µM, a TGI (786-0 renal) of 6.48 µM and a GI50 (A498 renal) of 2.75 µM. For the same compound, the TGI (A498 renal) was 7.36 µM, the GI50 (A549 NSCLC) was 4.93 µM and the TGI (A549 NSCLC) was 27 µM. For the same compound, the GI50 (ACHN renal) was 8.34 µM, the TGI (ACHN renal) was 20.8 µM and the GI50 (BT-549 breast) was 2.08 µM. For the same compound, the TGI (BT-549 breast) was 4.11 µM, the GI50 (CAKI-1 renal) was 6.6 µM and the TGI (CAKI-1 renal) was 20.8 µM. For the same compound, the GI50 (CCRF-CEM leukemia) was 2.01 µM, the TGI (CCRF-CEM leukemia) was 4.49 µM and the GI50 (COLO 205 colon) was 1.91 µM. The TGI (COLO 205 colon) was 3.8 µM, the GI50 (DU-145 prostate) was 1.96 µM and the TGI (DU-145 prostate) was 3.67 µM. For the same compound, the GI50 (EKVX NSCLC) was 2.2 µM, the TGI (EKVX NSCLC) was 5.47 µM and the GI50 (HCC-2998 colon) was 2.15 µM. It also gave a TGI (HCC-2998 colon) of 4.58 µM, a GI50 (HCT-116 colon) of 3.3 µM and a TGI (HCT-116 colon) of 12.1 µM. The GI50 (HCT-15 colon) was 7.72 µM, the TGI (HCT-15 colon) was 22.5 µM and the GI50 (HL-60(TB) leukemia) was 2.23 µM. For the same compound, the TGI (HL-60(TB) leukemia) was 6.26 µM, the GI50 (HOP-62 NSCLC) was 2.25 µM and the TGI (HOP-62 NSCLC) was 5.04 µM. It also gave a GI50 (HOP-92 NSCLC) of 1.34 µM, a TGI (HOP-92 NSCLC) of 4.6 µM and a GI50 (HS 578T breast) of 2.1 µM. The TGI (HS 578T breast) was 5.5 µM, the GI50 (HT29 colon) was 3.48 µM and the TGI (HT29 colon) was 14.8 µM. It also gave a GI50 (IGROV1 ovarian) of 4.05 µM, a TGI (IGROV1 ovarian) of 14.8 µM and a GI50 (K-562 leukemia) of 2.09 µM. For the same compound, the TGI (K-562 leukemia) was 4.37 µM, the GI50 (KM12 colon) was 2.03 µM and the TGI (KM12 colon) was 4.37 µM. It also gave a GI50 (LOX IMVI melanoma) of 1.97 µM, a TGI (LOX IMVI melanoma) of 4.26 µM and a GI50 (M14 melanoma) of 1.93 µM. It also gave a TGI (M14 melanoma) of 3.95 µM, a GI50 (MALME-3M melanoma) of 2.12 µM and a TGI (MALME-3M melanoma) of 4.95 µM. The GI50 (MCF7 breast) was 2.04 µM, the TGI (MCF7 breast) was 4.38 µM and the GI50 (MDA-MB-231 breast) was 2.04 µM. For the same compound, the TGI (MDA-MB-231 breast) was 4.71 µM, the GI50 (MDA-MB-435) was 1.86 µM and the TGI (MDA-MB-435) was 3.6 µM. It also gave a GI50 (MOLT-4 leukemia) of 2.09 µM, a TGI (MOLT-4 leukemia) of 4.43 µM and a GI50 (NCI-H226 lung) of 2.21 µM. The TGI (NCI-H226 lung) was 5.2 µM, the GI50 (NCI-H460 lung) was 3.53 µM and the TGI (NCI-H460 lung) was 11.8 µM. For the same compound, the GI50 (NCI-H522 lung) was 2.06 µM, the TGI (NCI-H522 lung) was 5.13 µM and the GI50 (NCI/ADR-RES ovarian) was 5.59 µM. It also gave a TGI (NCI/ADR-RES ovarian) of 19.6 µM, a GI50 (OVCAR-3 ovarian) of 7.61 µM and a TGI (OVCAR-3 ovarian) of 22.2 µM. It also gave a GI50 (OVCAR-4 ovarian) of 12.7 µM, a TGI (OVCAR-4 ovarian) of 28.5 µM and a GI50 (OVCAR-5 ovarian) of 3.38 µM. The TGI (OVCAR-5 ovarian) was 12.4 µM, the GI50 (OVCAR-8 ovarian) was 1.91 µM and the TGI (OVCAR-8 ovarian) was 4.17 µM. The GI50 (PC-3 prostate) was 1.79 µM, the TGI (PC-3 prostate) was 3.51 µM and the GI50 (RPMI-8226 leukemia) was 2.33 µM. For the same compound, the TGI (RPMI-8226 leukemia) was 5.06 µM, the GI50 (RXF 393 renal) was 1.81 µM and the TGI (RXF 393 renal) was 3.63 µM. For the same compound, the GI50 (SF-268 CNS) was 2.5 µM, the TGI (SF-268 CNS) was 6.52 µM and the GI50 (SF-295 CNS) was 1.76 µM. The TGI (SF-295 CNS) was 3.42 µM, the GI50 (SF-539 CNS) was 1.98 µM and the TGI (SF-539 CNS) was 4.21 µM. For the same compound, the GI50 (SK-MEL-2 melanoma) was 2.76 µM, the TGI (SK-MEL-2 melanoma) was 8.36 µM and the GI50 (SK-MEL-28 melanoma) was 1.77 µM. It also gave a TGI (SK-MEL-28 melanoma) of 3.3 µM, a GI50 (SK-MEL-5 melanoma) of 1.88 µM and a TGI (SK-MEL-5 melanoma) of 3.56 µM. The GI50 (SK-OV-3 ovarian) was 5.03 µM, the TGI (SK-OV-3 ovarian) was 18.9 µM and the GI50 (SN12C renal) was 2.29 µM. It also gave a TGI (SN12C renal) of 6.15 µM, a GI50 (SNB-19 CNS) of 2.08 µM and a TGI (SNB-19 CNS) of 4.66 µM. For the same compound, the GI50 (SNB-75 CNS) was 1.6 µM, the TGI (SNB-75 CNS) was 4.15 µM and the GI50 (SR leukemia) was 1.94 µM. For the same compound, the TGI (SR leukemia) was 4.32 µM, the GI50 (SW-620 colon) was 4.05 µM and the TGI (SW-620 colon) was 15.2 µM. For the same compound, the GI50 (T-47D breast) was 3.56 µM, the TGI (T-47D breast) was 17.8 µM and the GI50 (TK-10 renal) was 4.09 µM. It also gave a TGI (TK-10 renal) of 16.7 µM, a GI50 (UACC-257 melanoma) of 1.75 µM and a TGI (UACC-257 melanoma) of 3.46 µM. For the same compound, the GI50 (UACC-62 melanoma) was 1.99 µM, the TGI (UACC-62 melanoma) was 4.91 µM and the GI50 (UO-31 renal) was 3.58 µM. It also gave a TGI (UO-31 renal) of 16.1 µM.
